The source of these data is ChEMBL document CHEMBL3352607, “Exploiting the anti-HIV 6-desfluoroquinolones to design multiple ligands” (Bioorg Med Chem, 2014).

Data set [1] relates to Human immunodeficiency virus 2. In words: Antiviral activity against HIV2 ROD acutely infected in human MT4 cells assessed as inhibition of virus-induced cytopathogenic effect after 5 days by MTT assay. The class given is functional, organism-based. The note with it: Human immunodeficiency virus 2, ISOLATE ROD, MT4, 120 h.
For data set [2], the target named is T1, Human immunodeficiency virus type 1 reverse transcriptase (Human immunodeficiency virus 1, UniProt Q72547). Nature of the data set: Inhibition of HIV1 recombinant wild type reverse transcriptase p66/p51 using dsDNA by microplate reader based assay.
Data set [3] can be described thus: Cytotoxicity against human OM10.1 cells by MTT assay. The class given is cell-based.
For data set [4], the system named is Human immunodeficiency virus 1. In words: Antiviral activity against HIV1 latently infected in PMA-stimulated human OM10.1 cells assessed as reduction in p24 antigen levels pre-incubated for 2 hrs with host cells followed by 2 day incubation. The class given is functional, organism-based.
Data set [5] has as its system Human immunodeficiency virus 1. Nature of the data set: Antiviral activity against HIV1 3B acutely infected in human MT4 cells assessed as inhibition of virus-induced cytopathogenic effect after 5 days by MTT assay. Particulars: Human immunodeficiency virus 1, 3B, MT4, 120 h. The class given is functional, organism-based.
The nature of data set [6]: Cytotoxicity against mock-infected human MT4 cells after 5 days by MTT assay. The class given is cell-based.
For data set [7], the target named is T2, Protein Tat (Human immunodeficiency virus type 1 group M subtype B (isolate HXB2)(HIV-1)) (UniProt P04608).
T2 sequence (whole entry): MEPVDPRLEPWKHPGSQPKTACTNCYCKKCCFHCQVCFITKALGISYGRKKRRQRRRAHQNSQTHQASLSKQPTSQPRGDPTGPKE
Nature of the data set: Inhibition of HIV1 Tat-mediated transactivation of HIV1 long terminal repeat in human HeLa cells after 24 hrs by LTR driven luciferase reporter assay. The class given is cell-based. The note with it: Human immunodeficiency virus 1.

Data set [8] can be described thus: Selectivity index, ratio of CC50 for human OM10.1 cells to IC50 for HIV1 latently infected in human OM10.1 cells. Format: functional.
Another data set has as its system HeLa. Nature of the data set: Cytotoxicity against human HeLa cells at 10 uM to 200 uM after 24 hrs. The class given is cell-based.
Data set [9] addresses T1, Human immunodeficiency virus type 1 reverse transcriptase. Nature of the data set: Inhibition of HIV reverse transcriptase.

The source made the active and inactive calls. The calls are words filed in the database; no cut-off is given here.

Take `Cn1cc(C(=O)O)c(=O)c2cc(N)c(N3CCN(c4ccccn4)CC3)cc21`: the EC50 in [1] came out at 0.25 µM; in data set [4] it was 0.076 µM; in [5], 0.15 µM. For the same compound, in data set [2], the IC50 amounted to 800 µM. In [3], this compound showed a CC50 of 31.2 µM.
As for `CCN1c2ncccc2NC(=O)c2cc(NCCNc3cc4c(cc3N)c(=O)c(C(=O)O)cn4C)cnc21`, the EC50 in data set [1] and in data set [5] was greater than 200 µM in each case. The IC50 in [2] was 73.4 µM. Moreover, the cytotoxic concentration (CC50) at 120 h in data set [6] was greater than 200 µM. Besides, the inhibition entry in data set [7] is “inactive”.
For `CCN1c2ncccc2NC(=O)c2cc(N3CCN(c4cc5c(cc4N)c(=O)c(C(=O)O)cn5C)CC3)cnc21`, the EC50 in data set [1] and in data set [5] was greater than 25.7 µM in each case. Besides, the IC50 in data set [2] is 14.8 µM. The 50% cytotoxic concentration (CC50) at 120 h in [6] came to 25.7 µM. Moreover, the inhibition result in data set [7] was “inactive”.
On to `Cc1ccnc2c1NC(=O)c1cccnc1N2C1CC1` [NEVIRAPINE], for which the EC50 in data set [1] was greater than 15 µM. Moreover, the CC50 at 120 h in [6] is greater than 15 µM.
With `CCN1c2ncccc2NC(=O)c2ccc(N3CCN(c4cc5c(cc4N)c(=O)c(C(=O)O)cn5C)CC3)nc21`, the “Ratio CC50/IC50” value in [8] amounted to 4. Moreover, the EC50 in data set [1] was greater than 23.5 µM; in [4], 5.11 µM; in data set [5] it was greater than 23.5 µM. Moreover, the IC50 in [2] amounted to 8.4 µM. In data set [3], this compound registered a half-maximal cytotoxic concentration (CC50) of 18.4 µM. Besides, it took 23.5 µM to reach half-maximal cytotoxicity in data set [6] (CC50 at 120 h). Also, in the data set with HeLa, the Activity entry was “Non-toxic”. Besides, the inhibition entry in data set [7] was “Dose-dependent effect”.
In [9], `CCN1c2ncc(CCOc3cc[n+]([O-])c4ccccc34)cc2C(=O)N(C)c2cccnc21` [BILR 355] gave an IC50 of 0.017 µM.
